Measurements reported in paper PMC8228537, “Acrylonitrile Derivatives against Trypanosoma cruzi: In Vitro Activity and Programmed Cell Death Study” (Pharmaceuticals, 2021).
Entries after “also recorded” stand apart in the source; their conditions may differ.

Key:
[1] = test system: epimastigote stage of T. cruzi; assay: Antiparasitic activity, alamarBlue, epimastigotes; format: cell-based, Trypanosoma cruzi; conditions: for IC50: 72 h, epimastigote stage of T. cruzi (Y strain), alamarBlue, mean ± SD, NA: not active; for Selectivity index (SI): ratio of CC50 for J774A.1 and IC50 for epimastigotes of T. cruzi
Experimental: Epimastigotes of Trypanosoma cruzi (Y strain) were used in this study and cultured in liver infusion tryptose (LIT) medium supplemented with 10% of foetal bovine serum (FBS) at 26 °C.
In a sterile 96-well plate, a serial dilution of acrylonitriles was carried out in LIT medium supplemented with 10% FBS with a final volume of 100 µL. Parasites were added to wells to reach a concentration of 10^5 parasites per well. Finally, a 10% of alamarBlue Cell Viability Reagent® (ThermoFisher Scientific, Waltham, MA, USA) was added into each well, and the plate was incubated for 72 h at 26°C.

[2] = Cytotoxicity, alamarBlue, murine macrophages; format: cell-based; conditions: mouse, J774A.1 murine macrophage cell line, J774A.1 murine macrophages, mean ± SD
Experimental: The cytotoxicity was evaluated against murine macrophages (J774A.1) using the same method mentioned in the antiparasitic assay, based on the alamarBlue Cell Viability Reagent®. In a sterile 96-well plate, 10^4 cells per well were added, then, after the complete adhesion, serial dilutions of the 32 compounds, using a deep well plate, and a 10% of alamarBlue® were joined.

[3] = test system: epimastigotes of Trypanosoma cruzi; assay: Reactive oxygen species analysis (CellROX Deep Red); format: cell-based; conditions: 24 h with the IC90, Figure 5
Experimental: The CellROX® reagent emits red fluorescence in the presence of reactive oxygen species.
The oxidative stress was measured with the CellROX® Deep Red Reagent (ThermoFisher Scientific, MA, USA). […] Finally, the fluorescence was analyzed using the EVOS® FL Cell Imaging System (ThermoFisher Scientific, MA, USA) with the Cy5 light cube.

Trypanosoma cruzi = assay: Programmed cell death study (overall conclusion from the PCD assays); format: cell-based; conditions: overall conclusion from ROS, mitochondrial potential, ATP and chromatin condensation assays
Experimental: Different assays were performed to elucidate which pathways could be triggered by these acrylonitriles. The most probable cellular process induced by our compounds is the apoptosis or programmed cell death (PCD), in which the inflammatory response is weakly activated, in contrast to a necrotic event, where the inflammatory response is strong.

[4] = test system: epimastigotes of Trypanosoma cruzi; assay: ATP level analysis (CellTiter-Glo); format: cell-based; conditions: 24 h with the IC90, CellTiter-Glo, Figure 3
Experimental: Variations in the level of ATP were measured with the CellTiter-Glo® Luminescent Cell Viability Assay (Promega, WI, USA). […] Then, in a white 96-well plate, the epimastigotes were resuspended in 25µL of culture media and mixed with 25 µL of the kit. After 10 min of incubation at room temperature, the luminescence was measured using an EnSpire Multimode Plate Reader® (PerkinElmer). The results were expressed in percentage of production of ATP level relative to the negative control (without any treatment).

[5] = test system: epimastigotes of Trypanosoma cruzi; assay: Chromatin condensation analysis (Hoechst 33342/propidium iodide); format: cell-based; conditions: 24 h with the IC90, Figure 1
Experimental: Vybrant® Apoptosis Assay Kit n°5, Hoechst 33342/Propidium Iodide (ThermoFisher Scientific, MA, USA) was used to determinate the chromatin condensation of the treated parasites. […] Thereafter, Hoechst (5 µg/mL) and propidium iodide (PI) (1 µg/mL) were added and incubated for 20 min at 26 °C. The EVOS® FL Cell Imaging System (ThermoFisher Scientific, MA, USA) was used to capture the fluorescence images, using the DAPI (Hoechst) and RFP (PI) light cubes.

[6] = test system: epimastigotes of Trypanosoma cruzi; assay: Plasmatic membrane permeability analysis (SYTOX Green); format: cell-based; conditions: 24 h with the IC90, Figure 4
Experimental: The use of the dye SYTOX® Green reagent means that when the plasmatic permeability is altered, it is possible for the reagent to go inside the cells, joining the parasitic DNA and emitting an intense green fluorescence.
To determine the plasmatic membrane permeability, SYTOX® Green nucleic acid stain fluorescent dye (ThermoFisher Scientific, MA, USA) was used. […] The pellet was resuspended in a 50 µL staining buffer and the Sytox® Green at 1 µM (final concentration). After 15 min of incubation at room temperature, parasites were analyzed. Fluorescence pictures were taken with the EVOS® FL Cell Imaging System (ThermoFisher Scientific, MA, USA).

Compound | IC50 ([1]; Trypanosoma cruzi) | CC50 at 24 h [2] | Reactive oxygen species (CellROX Deep Red fluorescence) [3] | Induction of programmed cell death (apoptosis-like process) (Trypanosoma cruzi) | Percentage of ATP level relative to untreated control [4] | Chromatin condensation (Hoechst 33342 blue fluorescence) [5] | Dead cells (propidium iodide red fluorescence) [5] | Plasma membrane permeability (SYTOX Green fluorescence) [6] | Selectivity index (SI) [1] | IC50 [1]
N#C/C=C\C(=O)c1cccs1 [Compound Q14, (Z)-4-Oxo-4-(thiophen-2-yl)but-2-enenitrile] | 26.5 ± 2.83 µM | 8.39 ± 0.25 µM | – | – | – | – | – | – | – | –
CCOC(=O)/C=C/C#N [Compound Q3, (E)-Ethyl 3-cyanoacrylate] | 46.4 ± 5.73 µM | 86.7 ± 22.8 µM | most intense red fluorescence | did not show evidence of causing a programmed cell death mechanism | – | – | – | – | – | –
CN(C(=O)/C=C/C#N)c1ccccc1 [Compound Q29, (E)-3-Cyano-N-methyl-N-phenylacrylamide] | 138 ± 14 µM | 327.9 ± 2.85 µM | less intense fluorescence | robust evidence of inducing all the physiological features of an apoptosis-like process | < 1% | intense blue fluorescence in the nucleus, indicating chromatin condensation | red fluorescence, indicating already dead cells | more remarkable | – | –
CCOC(=O)/C=C\C#N [Compound Q4, (Z)-Ethyl 3-cyanoacrylate] | 47.3 ± 10.6 µM | 43.2 ± 9.83 µM | – | – | – | – | – | – | 0.91 | –
CCCCCCCCOC(=O)/C=C/C#N [Compound Q5, (E)-Octyl 3-cyanoacrylate] | 34.3 ± 1.67 µM | 53.9 ± 12.8 µM | less intense fluorescence | robust evidence of inducing all the physiological features of an apoptosis-like process | – | intense blue fluorescence in the nucleus, indicating chromatin condensation | red fluorescence, indicating already dead cells | more remarkable | – | –
N#C/C=C/P(=O)(c1ccccc1)c1ccccc1 [Compound Q19, (E)-3-(diphenylphosphoryl)acrylonitrile] | 14.6 ± 3.44 µM | 22.2 ± 3.24 µM | – | robust evidence of inducing all the physiological features of an apoptosis-like process | 30.78% | intense blue fluorescence in the nucleus, indicating chromatin condensation | red fluorescence, indicating already dead cells | more remarkable | – | –
CCOP(=O)(/C=C/C#N)OCC [Compound Q18, (E)-Diethyl 2-cyanovinylphosphonate] | – | – | less intense fluorescence | – | – | – | red fluorescence, indicating already dead cells | – | – | 14.8 ± 3.06 µM
COC(=O)/C=C\C#N [Compound Q2, (Z)-Methyl 3-cyanoacrylate] | 25.9 ± 2.78 µM | 112 ± 15.8 µM | – | did not show evidence of causing a programmed cell death mechanism | – | – | – | – | – | –
N#C/C=C\P(=O)(c1ccccc1)c1ccccc1 [Compound Q20, (Z)-3-(diphenylphosphoryl)acrylonitrile] | 49.1 ± 1.12 µM | 50.6 ± 10.8 µM | – | – | – | – | – | – | 1.03 | –
N#C/C=C/C(=O)CCc1ccccc1 [Compound Q17, (E)-4-Oxo-6-phenylhex-2-enenitrile] | 14.1 ± 2.53 µM | 5.24 ± 0.7 µM | – | – | – | – | – | – | 0.37 | –
CCCCCC(=O)/C=C/C#N [Compound Q10, (E)-4-Oxonon-2-enenitrile] | 11 ± 1.38 µM | 10.1 ± 1.46 µM | – | – | – | – | – | – | 0.92 | –
Cc1ccc(S(=O)(=O)/C=C/C#N)cc1 [Compound Q21, (E)-3-Tosylacrylonitrile] | 3.86 ± 0.67 µM | – | – | – | – | – | – | – | 0.83 | –
N#C/C=C/C(=O)Oc1ccccc1 [Compound Q7, (E)-phenyl 3-cyanoacrylate] | 15.5 ± 1.27 µM | 46.5 ± 3.81 µM | less intense fluorescence | robust evidence of inducing all the physiological features of an apoptosis-like process; also recorded: shown to induce an apoptosis-like cell death | 32.68% | intense blue fluorescence in the nucleus, indicating chromatin condensation | red fluorescence, indicating already dead cells | more remarkable | – | –
COC(=O)/C=C/C#N [Compound Q1, (E)-Methyl 3-cyanoacrylate] | 17.4 ± 4.75 µM | 87.4 ± 7.02 µM | – | did not show evidence of causing a programmed cell death mechanism | – | – | – | – | – | –
N#C/C=C\C(=O)c1ccccc1 [Compound Q12, (Z)-4-Oxo-4-phenylbut-2-enenitrile] | 20.9 ± 4.61 µM | 7.64 ± 1.21 µM | – | – | – | – | – | – | 0.36 | –
CON(C)C(=O)/C=C\C#N [Compound Q28, (Z)-3-Cyano-N-methoxy-N-methylacrylamide] | – | 210 ± 8.99 µM | – | – | – | – | – | – | – | –
CON(C)C(=O)/C=C/C#N [Compound Q27, (E)-3-Cyano-N-methoxy-N-methylacrylamide] | 291 ± 47 µM | 480 ± 29.1 µM | less intense fluorescence | robust evidence of inducing all the physiological features of an apoptosis-like process | < 1% | – | red fluorescence, indicating already dead cells | more remarkable | – | –
N#C/C=C/C(=O)c1ccccc1 [Compound Q11, (E)-4-Oxo-4-phenylbut-2-enenitrile] | 5.53 ± 1.36 µM | 5.22 ± 1.02 µM | – | – | – | – | – | – | 0.94 | –
N#C/C=C\C(=O)Oc1ccccc1 [Compound Q8, (Z)-phenyl 3-cyanoacrylate] | 4.36 ± 0.26 µM | 52.9 ± 4.51 µM | less intense fluorescence | shown to induce an apoptosis-like cell death | – | – | – | – | – | –
N#C/C=C/C(=O)c1ccco1 [Compound Q15, (E)-4-(Furan-2-yl)-4-oxobut-2-enenitrile] | 32.9 ± 0.83 µM | 6.66 ± 1.77 µM | – | – | – | – | – | – | 0.20 | –
N#C/C=C/C(=O)c1cccs1 [Compound Q13, (E)-4-Oxo-4-(thiophen-2-yl)but-2-enenitrile] | 25 ± 0.62 µM | 8.52 ± 0.04 µM | – | – | – | – | – | – | 0.34 | –
CCCCCCCCOC(=O)/C=C\C#N [Compound Q6, (Z)-Octyl 3-cyanoacrylate] | 51.9 ± 7.69 µM | 28.8 ± 2.53 µM | – | – | – | – | – | – | 0.55 | –
N#C/C=C/C(=O)C1CCCCC1 [Compound Q16, (E)-4-Cyclohexyl-4-oxobut-2-enenitrile] | 7.65 ± 1.51 µM | 4.35 ± 0.25 µM | – | – | – | – | – | – | 0.57 | –
N#C/C=C/C(=O)N1CCCC1 [Compound Q25, (E)-4-Oxo-4-(pyrrolidin-1-yl)but-2-enenitrile] | 154 ± 19.8 µM | 374 ± 47.9 µM | – | did not show evidence of causing a programmed cell death mechanism | – | – | – | – | – | –
